Measurements taken from PubChem BioAssay (NCI).
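Results reflect a 48-hour exposure of cells in 96-well plates to compound at five concentrations. TGI is the concentration that stops growth completely.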

Tests used:
Experiment in all cases: NCI tumour cell line growth inhibition, 48 h
K-562 leukemia = system: K-562 leukemia
OVCAR-5 ovarian = system: OVCAR-5 ovarian
NCI/ADR-RES ovarian = system: NCI/ADR-RES ovarian
SN12C renal = system: SN12C renal
OVCAR-8 ovarian = system: OVCAR-8 ovarian
HT29 colon = system: HT29 colon
MDA-N = system: MDA-N
HOP-92 NSCLC = system: HOP-92 NSCLC
NCI-H23 lung = system: NCI-H23 lung
HCC-2998 colon = system: HCC-2998 colon
A498 renal = system: A498 renal
MDA-MB-435 = system: MDA-MB-435
RPMI-8226 leukemia = system: RPMI-8226 leukemia
KM12 colon = system: KM12 colon
ACHN renal = system: ACHN renal
SF-539 CNS = system: SF-539 CNS
RXF 393 renal = system: RXF 393 renal
UACC-257 melanoma = system: UACC-257 melanoma
COLO 205 colon = system: COLO 205 colon
PC-3 prostate = system: PC-3 prostate
U251 CNS = system: U251 CNS
LOX IMVI melanoma = system: LOX IMVI melanoma
SK-OV-3 ovarian = system: SK-OV-3 ovarian
SF-268 CNS = system: SF-268 CNS
HCT-15 colon = system: HCT-15 colon
HCT-116 colon = system: HCT-116 colon
T-47D breast = system: T-47D breast
EKVX NSCLC = system: EKVX NSCLC
HL-60(TB) leukemia = system: HL-60(TB) leukemia
MOLT-4 leukemia = system: MOLT-4 leukemia
SK-MEL-2 melanoma = system: SK-MEL-2 melanoma
SR leukemia = system: SR leukemia
A549 NSCLC = system: A549 NSCLC
UO-31 renal = system: UO-31 renal
IGROV1 ovarian = system: IGROV1 ovarian
UACC-62 melanoma = system: UACC-62 melanoma
BT-549 breast = system: BT-549 breast
MDA-MB-231 breast = system: MDA-MB-231 breast
SNB-75 CNS = system: SNB-75 CNS
SK-MEL-5 melanoma = system: SK-MEL-5 melanoma
SNB-19 CNS = system: SNB-19 CNS
SF-295 CNS = system: SF-295 CNS
NCI-H226 lung = system: NCI-H226 lung
CCRF-CEM leukemia = system: CCRF-CEM leukemia
786-0 renal = system: 786-0 renal
SK-MEL-28 melanoma = system: SK-MEL-28 melanoma
HS 578T breast = system: HS 578T breast
OVCAR-4 ovarian = system: OVCAR-4 ovarian
OVCAR-3 ovarian = system: OVCAR-3 ovarian
NCI-H460 lung = system: NCI-H460 lung
M14 melanoma = system: M14 melanoma
DU-145 prostate = system: DU-145 prostate
HOP-62 NSCLC = system: HOP-62 NSCLC
TK-10 renal = system: TK-10 renal
MCF7 breast = system: MCF7 breast
SW-620 colon = system: SW-620 colon
MALME-3M melanoma = system: MALME-3M melanoma
NCI-H522 lung = system: NCI-H522 lung
CAKI-1 renal = system: CAKI-1 renal

Measured: TGI

Cc1cc(=O)oc2cc3oc(N(C)c4ccccc4)nc(=O)c3cc12
> 100 µM: all assays above
